Measured values published in patent US10597388B2, “Pyridazinone herbicides” (FMC CORPORATION, priority 2014, dated 2020).

What was measured:
Assay type in all cases: in vivo
[1] = test system: Canada thistle (Cirsium arvense); assay: Test D controlled growth environment herbicide test, pre- and postemergence; settings: for Canada Thistle plant response rating / Plant response rating (scale of 0 to 100), Canada Thistle: 31 g ai/ha
How it was run: (§1)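 Rating is visual, 0–100 scale (100 = complete control), made against untreated plants 14–21 d after treatment in controlled growth conditions. Postemergence sprays went onto 1- to 4-leaf plants in peat medium; preemergence sprays onto silt loam after sowing; formulation included a surfactant.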

[2] = test system: geranium, cutleaf (cutleaf geranium, Geranium dissectum); assay: as above
How it was run: as §1

[3] = test system: soybean (Glycine max); assay: Test E greenhouse herbicide test, pre- and postemergence
How it was run: (§2)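 Pre- and postemergence sprays, same solvent–surfactant formulation. Substrate: silt loam (pre), peat-based mix (post, 1–4 leaf, 2–18 cm). Readout: visual control rating 0–100 against controls at 14–21 d.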

[4] = test system: wild poinsettia (Euphorbia heterophylla); assay: as above
How it was run: as §2

[5] = Postemergence, scale 0 to 100 (0 no effect, 100 complete control)
[6] = Postemergence, 125 g ai/ha, visual rating on scale 0 (no effect) to 100 (complete control), 14 to 21 d
[7] = Postemergence, 250 g ai/ha, scale 0 to 100 (0 no effect, 100 complete control)
[8] = Preemergence, 62 g ai/ha, scale 0 to 100 (0 no effect, 100 complete control)
[9] = Preemergence, 125 g ai/ha, scale 0 to 100 (0 no effect, 100 complete control)
[10] = Preemergence, 250 g ai/ha, scale 0 to 100 (0 no effect, 100 complete control)
[11] = postemergence, 62 g ai/ha, scale 0 to 100, 0 no effect, 100 complete control
[12] = Postemergence, 31 g ai/ha, scale 0 to 100 (0 no effect, 100 complete control)
[13] = 125 g ai/ha, Postemergence, scale 0 to 100 (0 no effect, 100 complete control)
[14] = 125 g ai/ha, Preemergence, scale 0 to 100 (0 no effect, 100 complete control)
[15] = 250 g ai/ha, Postemergence, scale 0 to 100 (0 no effect, 100 complete control)
[16] = Postemergence, 31 g ai/ha, visual, scale 0 no effect to 100 complete control
[17] = Preemergence, 31 g ai/ha, scale 0 to 100, 0 no effect, 100 complete control
[18] = 62 g ai/ha, Postemergence, scale 0 to 100 (0 no effect, 100 complete control)
[19] = Preemergence, 250 g ai/ha, visual, scale 0 no effect to 100 complete control
[20] = Preemergence, scale 0 to 100, 0 no effect, 100 complete control
[21] = Postemergence, 16 g ai/ha, visual, scale 0 no effect to 100 complete control
[22] = Preemergence, 16 g ai/ha, scale 0 to 100, 0 no effect, 100 complete control
[23] = 62 g ai/ha, Preemergence, scale 0 to 100 (0 no effect, 100 complete control)

Row | SMILES | Canada Thistle plant response rating [1, 5] | Plant response rating, Canada Thistle [1, 6] | Plant response rating, Canada Thistle [1, 7] | Plant response rating (scale of 0 to 100), Canada Thistle ([1]; Preemergence) | Plant response rating, Canada Thistle [1, 8] | Plant response rating, Canada Thistle [1, 9] | Plant response rating, Canada Thistle [1, 10] | Plant response rating, Canada Thistle [1, 11] | Geranium, Cutleaf plant response rating [2, 12] | Plant response rating, Soybean [3, 13] | Plant response rating, Soybean [3, 14] | Plant response rating, Soybean [3, 15] | Plant response rating, Soybean [3, 16] | Plant response rating, Soybean [3, 17] | Plant response rating, Poinsettia, Wild [4, 18] | Plant response rating, Poinsettia, Wild [4, 13] | Plant response rating, Poinsettia, Wild [4, 14] | Plant response rating, Poinsettia, Wild [4, 15] | Plant response rating, Poinsettia, Wild [4, 16] | Plant response rating, Poinsettia, Wild [4, 17] | further results
1 | CC(=O)Oc1c(C)nn(C)c(=O)c1-c1c(C)cc(C)c2ccccc12 [Compound 153] | 98 | 100 | 100 | 100 | 100 | 100 | 100 | 98 | 75 | 10 | 30 | 25 | 0 | 30 | 30 | 50 | 60 | 75 | 20 | 40 | Plant response rating, Geranium, Cutleaf [2, 6]: 90; Plant response rating, Geranium, Cutleaf [2, 7]: 98; Plant response rating (scale of 0 to 100), Geranium, Cutleaf ([2]; Preemergence, 31 g ai/ha): 35; Plant response rating (scale of 0 to 100), Geranium, Cutleaf ([2]; Preemergence, 62 g ai/ha): 75; Plant response rating, Geranium, Cutleaf [2, 9]: 85; Plant response rating, Geranium, Cutleaf [2, 10]: 90; Plant response rating, Geranium, Cutleaf [2, 11]: 90; Plant response rating, Poinsettia, Wild [4, 19]: 75; Plant response rating, Poinsettia, Wild [4, 20]: 50
2 | CC(=O)Oc1c(Br)nn(C)c(=O)c1-c1c(C)ccc2ccccc12 [Compound 129] | 100 | 100 | 100 | 80 | 100 | 100 | 100 | 100 | 60 |  |  |  |  |  |  |  |  |  |  |  | Plant response rating, Geranium, Cutleaf [2, 6]: 75; Plant response rating, Geranium, Cutleaf [2, 7]: 75; Plant response rating (scale of 0 to 100), Geranium, Cutleaf ([2]; Preemergence, 31 g ai/ha): 0; Plant response rating (scale of 0 to 100), Geranium, Cutleaf ([2]; Preemergence, 62 g ai/ha): 0; Plant response rating, Geranium, Cutleaf [2, 9]: 70; Plant response rating, Geranium, Cutleaf [2, 10]: 95; Plant response rating, Geranium, Cutleaf [2, 11]: 70
3 | CCC(=O)Oc1c(C)nn(C)c(=O)c1-c1c(C)sc2ccc(Cl)cc12 [Compound 109] |  |  |  |  |  |  |  |  |  | 20 | 0 |  | 0 | 0 | 45 | 50 | 30 |  | 25 | 10 | Plant response rating, Soybean [3, 21]: 0; Plant response rating, Soybean [3, 22]: 0; Plant response rating, Poinsettia, Wild [4, 21]: 0; Plant response rating, Poinsettia, Wild [4, 22]: 10; Plant response rating, Poinsettia, Wild [4, 20]: 25
4 | CC(=O)Oc1c(C)nn(C)c(=O)c1-c1ccc(F)c2ccccc12 [Compound 90] | 98 | 100 | 98 | 50 | 95 | 100 | 100 | 100 | 45 | 60 |  |  | 30 |  | 50 | 60 |  |  | 35 |  | Plant response rating, Geranium, Cutleaf [2, 6]: 75; Plant response rating, Geranium, Cutleaf [2, 7]: 95; Plant response rating (scale of 0 to 100), Geranium, Cutleaf ([2]; Preemergence, 31 g ai/ha): 0; Plant response rating (scale of 0 to 100), Geranium, Cutleaf ([2]; Preemergence, 62 g ai/ha): 60; Plant response rating, Geranium, Cutleaf [2, 9]: 65; Plant response rating, Geranium, Cutleaf [2, 10]: 90; Plant response rating, Geranium, Cutleaf [2, 11]: 65; Plant response rating, Soybean [3, 21]: 20; Plant response rating, Poinsettia, Wild [4, 21]: 20
5 | CCOC(=O)Oc1c(C)nn(C)c(=O)c1-c1c(C)sc2ccc(C)cc12 [Compound 82] |  |  |  |  |  |  |  |  |  | 40 | 0 | 35 | 10 | 0 | 30 | 40 | 0 | 50 | 40 | 0 | Plant response rating, Soybean [3, 23]: 0; Plant response rating, Poinsettia, Wild [4, 23]: 0; Plant response rating, Poinsettia, Wild [4, 19]: 20
6 | COC(=O)Oc1c(C)nn(C)c(=O)c1-c1c(C)sc2c(C)cc(C)cc12 [Compound 81] |  |  |  |  |  |  |  |  |  | 0 | 0 | 10 | 0 | 0 | 40 | 40 | 30 | 50 | 30 | 0 | Plant response rating, Soybean [3, 23]: 0; Plant response rating, Soybean [3, 19]: 0; Plant response rating, Poinsettia, Wild [4, 23]: 5; Plant response rating, Poinsettia, Wild [4, 19]: 60
7 | CCC(=O)Oc1c(C)nn(C)c(=O)c1-c1c(C)sc2c(C)cc(C)cc12 [Compound 28] |  |  |  |  |  |  |  |  |  | 50 | 0 | 60 |  | 0 |  | 50 |  | 40 |  |  | Plant response rating, Soybean [3, 23]: 0; Plant response rating, Soybean [3, 19]: 0
8 | CSCC(=O)Oc1c(C)nn(C)c(=O)c1-c1cccc2ccccc12 [Compound 171] |  |  |  |  |  |  |  |  |  | 50 |  | 70 | 40 |  | 30 | 40 |  | 80 | 25 |  | 
